These results are taken from publication PMC2229521 (The Journal of General Physiology, 2002).

In assay [1] the target is human adult nAChRs expressed in HEK 293 cells (Homo sapiens, UniProt P02708+P11230+Q04844+Q07001). Format: binding. Particulars: P = 0.64 by one-way ANOVA.
Assay [2] has as its target neuronal nAChR ACh recognition sites. Particulars: ref Perry et al., 1988; Hunter et al., 1989; cited from earlier work.

human adult nAChRs expressed in HEK 293 cells, sequence (P02708 21-457): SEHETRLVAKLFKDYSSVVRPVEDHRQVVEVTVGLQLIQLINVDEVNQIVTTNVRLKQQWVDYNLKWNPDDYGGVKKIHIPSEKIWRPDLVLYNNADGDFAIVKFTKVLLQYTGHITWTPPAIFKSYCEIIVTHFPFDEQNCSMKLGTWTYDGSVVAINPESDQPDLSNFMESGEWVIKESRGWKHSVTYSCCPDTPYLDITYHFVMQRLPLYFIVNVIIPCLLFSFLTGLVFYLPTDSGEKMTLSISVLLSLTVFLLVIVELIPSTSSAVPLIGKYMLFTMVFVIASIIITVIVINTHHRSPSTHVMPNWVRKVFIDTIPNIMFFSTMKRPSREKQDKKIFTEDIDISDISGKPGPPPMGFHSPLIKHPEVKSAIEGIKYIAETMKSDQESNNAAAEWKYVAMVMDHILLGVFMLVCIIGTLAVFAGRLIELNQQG
human adult nAChRs expressed in HEK 293 cells, sequence (P11230 24-501): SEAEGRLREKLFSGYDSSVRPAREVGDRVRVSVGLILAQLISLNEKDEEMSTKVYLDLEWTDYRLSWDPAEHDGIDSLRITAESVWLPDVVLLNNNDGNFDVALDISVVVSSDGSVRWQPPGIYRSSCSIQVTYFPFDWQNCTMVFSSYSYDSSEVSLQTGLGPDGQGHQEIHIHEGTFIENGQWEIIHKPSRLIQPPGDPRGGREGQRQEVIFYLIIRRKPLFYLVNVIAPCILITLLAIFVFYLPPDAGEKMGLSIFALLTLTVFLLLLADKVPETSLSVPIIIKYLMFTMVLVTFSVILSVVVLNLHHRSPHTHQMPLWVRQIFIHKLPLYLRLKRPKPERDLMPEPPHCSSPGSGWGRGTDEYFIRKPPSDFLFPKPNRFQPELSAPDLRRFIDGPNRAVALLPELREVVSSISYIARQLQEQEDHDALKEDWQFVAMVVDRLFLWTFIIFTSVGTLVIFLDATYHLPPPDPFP
human adult nAChRs expressed in HEK 293 cells, sequence (Q07001 22-517): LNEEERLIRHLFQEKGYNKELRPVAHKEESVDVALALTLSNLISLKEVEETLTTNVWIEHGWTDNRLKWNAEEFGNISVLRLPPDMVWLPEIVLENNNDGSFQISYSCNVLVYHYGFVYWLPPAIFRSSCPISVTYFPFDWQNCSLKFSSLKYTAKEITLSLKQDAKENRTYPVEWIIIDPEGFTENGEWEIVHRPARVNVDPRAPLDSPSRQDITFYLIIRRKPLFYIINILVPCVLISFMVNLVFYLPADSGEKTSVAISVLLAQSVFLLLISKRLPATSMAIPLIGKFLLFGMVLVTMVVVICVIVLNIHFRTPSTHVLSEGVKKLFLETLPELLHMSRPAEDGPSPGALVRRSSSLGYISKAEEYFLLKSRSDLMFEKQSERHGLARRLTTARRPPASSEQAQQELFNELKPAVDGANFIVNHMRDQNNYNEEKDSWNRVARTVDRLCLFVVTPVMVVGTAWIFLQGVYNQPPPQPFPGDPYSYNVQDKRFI
human adult nAChRs expressed in HEK 293 cells, sequence (Q04844 21-493): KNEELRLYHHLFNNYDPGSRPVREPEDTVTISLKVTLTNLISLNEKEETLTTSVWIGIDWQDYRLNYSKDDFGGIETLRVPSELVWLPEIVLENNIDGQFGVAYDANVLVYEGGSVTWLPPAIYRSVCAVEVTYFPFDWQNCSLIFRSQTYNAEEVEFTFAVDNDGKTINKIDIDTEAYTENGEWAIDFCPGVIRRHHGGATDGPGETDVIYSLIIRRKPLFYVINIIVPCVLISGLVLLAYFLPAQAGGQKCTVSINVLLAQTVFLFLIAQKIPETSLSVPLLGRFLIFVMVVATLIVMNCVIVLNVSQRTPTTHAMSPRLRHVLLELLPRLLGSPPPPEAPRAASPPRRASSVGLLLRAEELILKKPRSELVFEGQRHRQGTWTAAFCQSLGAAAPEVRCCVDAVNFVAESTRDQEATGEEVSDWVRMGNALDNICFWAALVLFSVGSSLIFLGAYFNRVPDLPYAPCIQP

Take `C[N+](C)(C)CCOC(N)=O.[Cl-]` [carbamylcholine]: the “difference in log IC 50 values in the presence of varying concentrations of tacrine” value in assay [1] is “No difference”. For the compound `Nc1c2c(nc3ccccc13)CCCC2` [tacrine, 9-amino-1,2,3,4-tetrahydroacridine], in assay [2], the “Kd values, competitive binding” value is recorded as “low micromolar range”.
